Assays:
A. baumanii 195N (a) = assay: MIC determination at Uppsala University; type: cell-based; details: Acinetobacter baumannii, AAC(3)Ia, ANT(3″)Ia, APH(3″)Ib, APH(3′)VI, APH(6)Id
Description: (§1) 3.4.1 MIC Determination at Uppsala University (Sweden)
(§2) Tested reference compounds. Amikacin disulfate (Cat. No. A1774, Sigma Aldrich), Apramycin sulfate (Cat. No. A2024, Sigma Aldrich) and Gentamicin sulfate (Cat. No. G1914, Sigma Aldrich).
(§3) Bacterial strains/isolates. All assayed laboratory and clinical strains (P. aeruginosa PA01, A. baumanii ATCC 19606, A. baumanii 195N(a), A. baumanii 48F, E. coli C1162, E. coli C1181, M. morgannii S49 and P. stuartii B8-1) were from the IMI ND4BB ENABLE consortium strain collection. ATCC laboratory strains were acquired directly from the American Type Culture Collection. Clinical strains used were previously published (M Juhas, et al. J. Antimicrob. Chemother., 74 (4), 944-952 (2019); D. Hughes et al., Antimicrob. Agents Chemother., 47 (10), 3222-3232 (2003)) and were resistance genotyped within the ENABLE consortium.
(§4) Culture media and equipment. Water (Thermo Scientific, R05819); Mueller-Hinton II broth (BD Ref. 212322); sterile round-bottom 96-well plates (Thermo Scientific, 262162); Sensititre Nephelometer (ThermoFisher Scientific, V3011); 0.5 McFarland Standard (ThermoFisher Scientific, E1041); sterile polyester film (VWR, 391-1251).
(§5) Compound preparation. MIC assay procedure follows the CLSI M07 standard method (Clinical and Laboratory Standards Institute (CLSI); Methods for dilution antimicrobial susceptibility tests for bacteria that grow aerobically; approved standard—eleventh edition, M07-A10, Vol. 38, No. 2, 2018). Test compounds were received as solids and were dissolved in water to a concentration of 10 mg/mL of active compound. […] This solution was serially diluted in 2-fold steps in the first 10 columns of sterile round-bottom 96-well plates, while the final two columns were filled with Mueller-Hinton II broth without added compound for use as positive and negative growth controls.
(§6) Inoculum preparation. Inoculums were prepared by suspending several colonies freshly streaked culture of test strains in 5 mL of sterile 0.9% NaCl. The cell density of the inoculum solution was assessed and adjusted using a Sensititre Nephelometer and a 0.5 McFarland Standard. The inoculum was diluted 1:100 in Mueller-Hinton II broth and 50 μL of this inoculum solution was added to 50 μL of the test compound solutions yielding a concentration range of 64-0.125 μg/mL. The plates were sealed with sterile polyester film and stationarily incubated at 37° C. for 18 hours.
(§7) MIC determination. The MIC value was determined by visual inspection of bacterial growth within 96-well plates. The lowest concentration completely inhibiting growth was reported as the MIC for each strain and compound combination.

A. baumanii 48F = assay: MIC determination at Uppsala University; type: cell-based; details: Acinetobacter baumannii; A. boumanii 48F; ANT(2″)Ia, APH(3″)-Ib, APH(3′)-VIa, APH(6)-Id
Description: as §1, §2, §3, §4, §5, §6, §7

A. baumanii ATCC 19606 = assay: MIC determination at Uppsala University; type: cell-based; details: Acinetobacter baumannii, ATCC19606, AMEs: WT
Description: as §1, §2, §3, §4, §5, §6, §7

E. coli C1162 = assay: MIC determination at Uppsala University; type: cell-based; details: Escherichia coli, APH(3′)-Ia
Description: as §1, §2, §3, §4, §5, §6, §7

E. coli C1181 = assay: MIC determination at Uppsala University; type: cell-based; details: Escherichia coli, ANT(3″)-Ia, APH(3′)-Ia
Description: as §1, §2, §3, §4, §5, §6, §7

M. morgannii S49 = assay: MIC determination at Uppsala University; type: cell-based; details: Morganella morganii, AAC(3)-IId, ANT(3″), APH(3″)-Ib, APH(3′)-Ia, APH(6)-Id
Description: as §1, §2, §3, §4, §5, §6, §7

P. aeruginosa PAO1 = assay: MIC determination at Uppsala University; type: cell-based; details: Pseudomonas aeruginosa, AMEs: WT
Description: as §1, §2, §3, §4, §5, §6, §7

P. stuartii B8-1 = assay: MIC determination at Uppsala University; type: cell-based; details: Providencia stuartii, B81, AAC(3)-Ic, ANT (3″)Ia, APH(3′)-IIa, APH(3′)-IIb, APH(3′)-VI, APH(6)-Ic
Description: as §1, §2, §3, §4, §5, §6, §7

[1] = Maximum tolerated dose (MTD) / acute toxicity study, IV; type: in vivo; details: for MTD at 4 days / LD50 at 4 days: male, CD (Sprague Dawley), rat, in vivo, iv; for LD50 at 4 days / LD50: rats, one-time IV dose over 15 min
Procedure: 4.4 Maximum Tolerated Dose (MTD) Study in Male CD (Sprague Dawley) Rats.
The study was performed in an AAALAC I—approved Facility. The standard study plan relating to this study was reviewed by the Ethical Committee (CARE-Zagreb) as required by International Laws/Regulations and Croatian Low on Animal Welfare (“The Animal Protection Act”, Official Gazette, NN 37/13) and Animal Welfare Officer.
In vivo studies were performed by Fidelta (Zagreb, Croatia) and all rats (Sprague Dawley) were obtained from Charles River Laboratories (Italy). Three compounds, i.e. ABX5006, ABX5020 and ABX5039 were tested to determine the MTD of the test articles in male CD (Sprague Dawley) rats following a one-time dose (IV).
MTD study: Pathogen-free male CD (Sprague Dawley) rats (3 rats per dosing group) weighing 225-260 g were used. Five different dosing groups (50 mg/kg, 75 mg/kg, 100 mg/kg, 150 mg/kg and 200 mg/kg) were used and the test article was administered intravenous over 15 min (slow injection, 5 mL/kg). […] Clinical signs, body weight, food consumption and mortality was recorded during the in-life phase of the study. All animals surviving to the end of the 4 day monitoring period were euthanized on day 4. Terminal studies included gross necropsy and organ weight recording of all animals.
Supplies/Chemicals. Sterile, single used needles (25 G Microlance, REF300400, Becton Dickinson); 2 mL syringes (REF300185, Becton Dickinson); Phosphate buffered saline (P3813, Sigma Aldrich); isoflurane anesthesia (Abbott, Netherlands)
Anesthesia. Animals were deeply anaesthetized using isoflurane and subsequently exsangunated for full post mortem examination.

Row | SMILES | MIC90 (A. baumanii 195N (a)) [µg/mL] | MIC90 (A. baumanii 48F) [µg/mL] | MIC90 (A. baumanii ATCC 19606) [µg/mL] | MIC90 (E. coli C1162) [µg/mL] | MIC90 (E. coli C1181) [µg/mL] | MIC90 (M. morgannii S49) [µg/mL] | MIC90 (P. aeruginosa PAO1) [µg/mL] | MIC90 (P. stuartii B8-1) [µg/mL] | MTD at 4 days [1] [mg/kg] | LD50 at 4 days [1] [mg/kg] | LD50 [1] [mg/kg]
1 | NCC[C@H](O)C(=O)N[C@@H]1C[C@H](N)[C@@H](O[C@H]2O[C@H](CN)[C@@H](O)[C@H](O)[C@H]2O)[C@H](O)[C@H]1O[C@H]1O[C@H](CO)[C@@H](O)[C@H](N)[C@H]1O [Amikacin, amikacin, reference compound] | > 64 | > 64 | 16 | 4 | 4 | 4 | 4 | > 64 | – | – | –
2 | N=C(NC[C@@H]1CCNC1)NC1[C@@H](O)C(OC2[C@@H](F)[C@H](O[C@H]3OC(CN)[C@@H](O)CC3N)C(N)C[C@H]2NC(=O)[C@@H](O)CCN)O[C@H](CO)[C@H]1O (stereo partly drawn) [ABX5039, Tobra-AHB-F-Gua (R) pyrrolidine-3-ylmethyl] | 4 | 4 | 8 | 1 | 0.5 | 1 | 1 | 2 | 75 | > 75 | 75 to 100
3 | N=C(N)NC1C(O)[C@@H](CO)OC(OC2C(F)[C@H](O[C@H]3OC(CN)[C@@H](O)CC3N)C(N)C[C@H]2NC(=O)[C@@H](O)CCN)[C@@H]1O (stereo partly shown) [ABX5006, Tobra-AHB-F-Gua] | 4 | 4 | 8 | 1 | 1 | 1 | 1 | 4 | 150 | > 200 | >200
4 | N=C(NC[C@@H]1CCCN1)NC1[C@@H](O)C(OC2[C@@H](F)[C@H](O[C@H]3OC(CN)[C@@H](O)CC3N)C(N)C[C@H]2NC(=O)[C@@H](O)CCN)O[C@H](CO)[C@H]1O (stereo partly drawn) [ABX5026, Tobra-AHB-F-Gua (S) pyrrolidine-2-yl-methyl] | 8 | 4 | 8 | 1 | 0.5 | 2 | 1 | 2 | 75 | > 75 | –
